Patent US11242335B2, “Fluorine-substituted indazole compounds and uses thereof” (SUNSHINE LAKE PHARMA CO., LTD., priority 2017, dated 2022)

Biological target: T1, soluble guanylate cyclase (sGC) expressed by CHO-K1-Rat sGC monoclonal cell line (Rattus norvegicus, UniProt P19686+P20595)
T1 construct: expressed in transfected cells; host or cells: CHO-K1
T1 sequence (P19686 1-690): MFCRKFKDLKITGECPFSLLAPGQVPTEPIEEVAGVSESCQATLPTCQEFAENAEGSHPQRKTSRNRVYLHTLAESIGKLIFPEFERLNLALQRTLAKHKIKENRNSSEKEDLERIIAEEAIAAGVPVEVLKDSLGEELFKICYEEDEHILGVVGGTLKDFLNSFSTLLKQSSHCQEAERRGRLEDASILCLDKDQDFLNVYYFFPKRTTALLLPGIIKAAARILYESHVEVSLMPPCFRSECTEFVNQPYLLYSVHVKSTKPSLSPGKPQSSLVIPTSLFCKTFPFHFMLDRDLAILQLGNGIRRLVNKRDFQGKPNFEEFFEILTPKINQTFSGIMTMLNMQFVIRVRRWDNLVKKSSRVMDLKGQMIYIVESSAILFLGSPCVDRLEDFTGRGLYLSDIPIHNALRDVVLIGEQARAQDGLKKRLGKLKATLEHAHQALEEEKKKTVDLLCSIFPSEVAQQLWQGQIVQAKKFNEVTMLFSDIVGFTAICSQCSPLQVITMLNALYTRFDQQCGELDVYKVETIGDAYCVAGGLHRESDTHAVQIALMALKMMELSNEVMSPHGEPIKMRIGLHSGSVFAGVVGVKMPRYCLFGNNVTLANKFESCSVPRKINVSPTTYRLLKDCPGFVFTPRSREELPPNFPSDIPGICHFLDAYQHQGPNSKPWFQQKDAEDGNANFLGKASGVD
T1 sequence (P20595 1-619): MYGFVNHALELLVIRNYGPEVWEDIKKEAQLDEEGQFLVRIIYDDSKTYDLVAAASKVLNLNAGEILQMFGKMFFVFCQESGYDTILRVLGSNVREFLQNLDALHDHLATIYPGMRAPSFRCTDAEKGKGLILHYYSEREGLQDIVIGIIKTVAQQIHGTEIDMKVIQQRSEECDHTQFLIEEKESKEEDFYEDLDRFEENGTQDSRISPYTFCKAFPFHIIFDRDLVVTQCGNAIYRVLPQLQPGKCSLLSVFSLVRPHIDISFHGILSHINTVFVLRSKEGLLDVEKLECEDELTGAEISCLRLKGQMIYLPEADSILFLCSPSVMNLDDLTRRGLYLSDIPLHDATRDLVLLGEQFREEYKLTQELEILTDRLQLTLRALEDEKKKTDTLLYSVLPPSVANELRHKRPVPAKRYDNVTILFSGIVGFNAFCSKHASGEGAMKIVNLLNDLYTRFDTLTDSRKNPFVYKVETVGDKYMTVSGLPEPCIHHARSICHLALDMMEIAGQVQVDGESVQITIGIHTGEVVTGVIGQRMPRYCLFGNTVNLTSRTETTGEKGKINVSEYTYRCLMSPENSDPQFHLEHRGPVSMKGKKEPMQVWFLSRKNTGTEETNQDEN
Test: Effect on recombinant guanylate cyclase reporter cell line (CHO-K1-Rat sGC, Cisbio cGMP HTRF)
Type: cell-based
Details: activating soluble guanylate cyclase
From the text: Transfection of Soluble Guanylate Cyclase (sGC) gene into CHO-K1 cells and selection of cells with stably and highly expressed sGC: Rat sGCα1 and Rat sGCβ1 Genes were synthesized, and then pcDNA3.1(+)-rat sGCα1 and pcDNA3.1/Hygro (+)-rat sGCβ1 plasmid were constructed; the plasmid was co-transfected into CHO-K1 cells, and a positive clone cell line stably expressing CHO-K1-Rat sGC was selected using the Cisbio cGMP HTRF assay kit.
The activity of the compound on the CHO-K1-Rat sGC monoclonal cell line was determined: The CHO-K1-Rat sGC monoclonal cell line was cultured, and used for test operation at degree of fusion of about 70% to 90%. The cells were resuspended in complete medium after TrypLE digestion; the cells were inoculated in a 384-well (low volume tissues culture treated) cell culture plate at a seeding density of 7500/well in 25 μL of complete medium and incubated at 37° C. in 5% CO2 atmosphere for 20 hours; the test compounds were dissolved and dilute with DMSO to give 10 concentration gradients (2× working concentration); 384-well cell culture plates were centrifugated (200 g) for 3 seconds by inversion at RT, medium was removed; The test compounds in each different concentration gradient and corresponding reagent were added into each cell well according to the detection process of Cisbio cGMP HTRF assay kit. The data were collected with Envision HTRF detector and the EC50 value of each compound in activating soluble guanylate cyclase was calculated.

## COC(=O)Nc1c(N)nc(-c2nn(Cc3ccccc3F)c3c(F)cccc23)nc1N [Example 10, methyl (4,6-diamino-2-(7-fluoro-1-(2-fluorobenzyl)-1H-indazol-3-yl)pyrimidin-5-yl)carbamate]
  EC50: 370 nM
